The record followed here is US7792665B2, “Method for designing a compound based on the three dimensional structure of phosphoinositide dependent protein kinase 1 (PDK1)” (Medical Research Council, priority 2002, dated 2010).

Positions count from the first letter of the chain named. Entries after “also recorded” stand apart in the source; their conditions may differ. Where a SMILES comes first, the peptide text is derived from it. [ ]: non-standard residue; d: D form. pT = C[C@@H](OP(=O)(O)O)[C@H](N)C(=O)O

For one experiment, the target named is T1, PDK1[Q150A] (Homo sapiens, UniProt O15530, Q150A).
T1 sequence (O15530 1-556 Q150A): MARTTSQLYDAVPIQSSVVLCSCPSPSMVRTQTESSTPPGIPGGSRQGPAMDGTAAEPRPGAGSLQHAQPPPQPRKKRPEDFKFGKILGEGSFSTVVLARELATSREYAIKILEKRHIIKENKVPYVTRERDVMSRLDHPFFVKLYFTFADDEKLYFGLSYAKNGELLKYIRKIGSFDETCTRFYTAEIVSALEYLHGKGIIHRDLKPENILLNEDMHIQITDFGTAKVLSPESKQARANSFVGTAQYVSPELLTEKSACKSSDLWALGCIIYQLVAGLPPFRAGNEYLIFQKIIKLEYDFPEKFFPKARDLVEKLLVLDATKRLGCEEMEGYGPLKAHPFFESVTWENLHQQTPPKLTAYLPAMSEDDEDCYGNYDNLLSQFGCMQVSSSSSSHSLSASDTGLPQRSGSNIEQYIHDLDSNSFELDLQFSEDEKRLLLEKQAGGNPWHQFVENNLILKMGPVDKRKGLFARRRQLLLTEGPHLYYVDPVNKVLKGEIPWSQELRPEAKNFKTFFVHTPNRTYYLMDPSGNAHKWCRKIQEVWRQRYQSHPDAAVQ
Kind of experiment: Surface plasmon resonance (BiaCore) binding, PDK1[Q150A]. On the set-up: made in house; host or cells: human embryonic kidney 293 cells (pEBG2T vector). On the procedure:
(§1) Binding and activation of wild type and mutant forms of PDK1 to a phosphopeptide derived from the hydrophobic motif of S6K1. The binding of the wild type (wt) PDK1 and indicated mutants to a phosphopeptide comprising the hydrophobic motif of S6K1 (S6K-pHM: […]*YVAPSV, where T* indicates phospho-threonine, SEQ ID NO:104) was analysed by surface plasmon resonance as described in the Materials and Methods.
(§2) A. The sensor chip SA was coated with 12RUs of the biotinylated S6K-pHM peptide and the binding was analysed following injection of 270 nM wild type PDK1, PDK1 [T148A] and PDK1 [K76A]. […] (data not shown).
(§3) Binding was analysed in a BiaCore 3000 system (BiaCore AB, Stevenage, UK). Biotinylated S6K-pHM (Biotin-C12-[…](P)YVAPSV) (SEQ ID NO:104) or the non-phosphorylated form of this peptide S6K-HM was bound to an streptavidin-coated Sensor chip (SA) (12 response units, RU). 30 μl of wild type or the indicated mutant GST-PDK1 were injected at a flow rate of 30 μl/min, in buffer HBS-P (10 mM HEPES pH 7.4, 0.15M NaCl, 0.005% (by vol) polysorbate-20) supplemented with 1 mM DTT. Specific interactions between 56K-pHM and PDK1 proteins were obtained between the concentration range of 2-2150 nM PDK1. Steady state binding was determined at each concentration. Dissociation of PDK1 from the phospho-peptide was monitored over a 1 min period. […]

The target of the next experiment is T2, PDK1[R131A] (Homo sapiens, UniProt O15530, R131A).
T2 construct: GST (N); made in house; host or cells: human embryonic kidney 293 cells (pEBG2T vector)
T2 sequence (O15530 1-556 R131A): T1 sequence (O15530 1-556 Q150A) with R131A, A150Q
In words: Surface plasmon resonance (BiaCore) binding, PDK1[R131A]. On the procedure:
as §1, §2, §3

As to `CC(C)C[C@H](NC(=O)[C@H](Cc1ccccc1)NC(=O)[C@@H](NC(=O)[C@H](CCC(N)=O)NC(=O)[C@H](CC(N)=O)NC(=O)[C@H](C)NC(=O)[C@H](CO)NC(=O)[C@H](CCC(=O)O)NC(=O)[C@@H](N)CO)C(C)C)C(=O)NCC(=O)N[C@@H](Cc1ccccc1)C(=O)N[C@H](C(=O)N[C@@H](Cc1ccc(O)cc1)C(=O)N[C@H](C(=O)N[C@@H](C)C(=O)N1CCC[C@H]1C(=O)N[C@@H](CO)C(=O)N[C@H](C(=O)O)C(C)C)C(C)C)[C@@H](C)OP(=O)(O)O` [S6K-pHM] (H-SESANQVFLGF[pT]YVAPSV-OH; N-terminus and C-terminus assumed), the “binding of PDK1[Q150A] to peptide” value at PDK1[Q150A] is “No detectable binding; also recorded: did not detectably interact”. The “binding of PDK1[R131A] to peptide” value at PDK1[R131A] is given as “No detectable binding; also recorded: did not detectably interact”.
